Data as given in US12582641B2, “Sulfur-containing compound based on glutarimide skeleton and application thereof” (SHANGHAITECH UNIVERSITY, priority 2019, dated 2026).

These molecules were tested on MM.1S cells (assay: Proliferation inhibition (IC50) in MM.1S cells, cell viability assay). Settings: Homo sapiens, MM1.S, 72 h, read-out: IC50 (nM), proliferation inhibitory activity of MM.1S cells (half inhibitory concentration).
In the case of `O=C1CCC(N2Cc3c(SCc4cc(Br)c(CN5CCCCC5)cc4Br)cccc3C2=O)C(=O)N1` (stereo not shown) [SIAIS1227139, 3-(4-((2,5-dibromo-4-(piperidin-1-ylmethyl)benzyl)thio)-1-oxoisoindolin-2-yl)piperidine-2,6-dione], the IC50 is reported as 1.04 ± 0.21 nM. With `CN1C(=O)CCC(N2Cc3c(SCc4ccc(CN5CCCCC5)cc4)cccc3C2=O)C1=O` (stereo not shown) [SIAIS1224101, 1-methyl-3-(1-oxo-4-((4-(piperidin-1-ylmethyl)benzyl)thio)isoindolin-2-yl)piperidine-2,6-dione] the IC50 was 287 nM. Work on `O=C1CCC(N2Cc3c(SCc4ccc(CNC(C5CC5)C5CC5)cc4)cccc3C2=O)C(=O)N1` (stereo not shown) [SIAIS1227183, 3-(4-((4-(((dicyclopropylmethyl)amino)methyl)benzyl)thio)-1-oxoisoindolin-2-yl)piperidine-2,6-dione] yielded an IC50 of 0.039 nM. Work on `O=C1CCC(N2Cc3c(SCCCCCCNCC45CC6CC(CC(C6)C4)C5)cccc3C2=O)C(=O)N1` (stereo not shown) [SIAIS1221013, 3-(4-((6-((adamantan-1-ylmethyl)amino)hexyl)thio)-1-oxoisoindolin-2-yl)piperidine-2,6-dione] yielded an IC50 of 0.028 ± 0.012 nM. `O=C1CCC(N2C(=O)c3cccc(SCCCCCNC45CC6CC(CC(C6)C4)C5)c3C2=O)C(=O)N1` (stereo not shown) [SIAIS1222097, 4-((5-((adamantan-1-yl)amino)pentyl)thio)-2-(2,6-dioxopiperidin-3-yl)isoindoline-1,3-dione] showed an IC50 of 0.409 nM. In the case of `O=C1CCC(N2Cc3c(SCc4ccc(CNC56CC7CC(CC(C7)C5)C6)cc4F)cccc3C2=O)C(=O)N1` (stereo not shown) [SIAIS1227179, 3-(4-((4-(((adamantan-1-yl)amino)methyl)-2-fluorobenzyl)thio)-1-oxoisoindolin-2-yl)piperidine-2,6-dione], the IC50 is reported as 0.029 nM. Work on `Cc1ccc(NC(=O)NCCCCSc2cccc3c2CN(C2CCC(=O)NC2=O)C3=O)cc1Cl` (stereo not shown) [SIAIS269095, 1-(3-chloro-4-methylphenyl)-3-(4-((2-(2,6-dioxopiperidin-3-yl)-1-oxoisoindolin-4-yl)thio)butyl)urea] yielded an IC50 of 0.334 nM. In the case of `O=C1CCC(N2Cc3c(SCCCCCCCNC45CC6CC(CC(O)(C6)C4)C5)cccc3C2=O)C(=O)N1` (stereo not shown) [SIAIS1222141], the IC50 is reported as 0.342 nM. `O=C1CCC(N2Cc3c(SCCCCCCCCNC4C5CC6CC(C5)CC4C6)cccc3C2=O)C(=O)N1` (stereo not shown) [SIAIS1220089, 3-(4-((8-((adamantan-2-yl)amino)octyl)thio)-1-oxoisoindolin-2-yl)piperidine-2,6-dione] was tested, and the IC50 was 0.07 nM. Work on `O=C1CCC(N2Cc3c(SCc4ccc(CN5CCC6(CC5)CC6)cc4)cccc3C2=O)C(=O)N1` (stereo not shown) [SIAIS1227115, 3-(4-((4-((6-azaspiro[2.5]octan-6-yl)methyl)benzyl)thio)-1-oxoisoindolin-2-yl)piperidine-2,6-dione] yielded an IC50 of 0.04 ± 0.01 nM. Work on `O=C1CCC(N2Cc3c(SCc4cc(Br)c(CNC56CC7CC(CC(C7)C5)C6)cc4Br)cccc3C2=O)C(=O)N1` (stereo not shown) [SIAIS1227143, 3-(4-((4-(((adamantan-1-yl)amino)methyl)-2,5-dibromobenzyl)thio)-1-oxoisoindolin-2-yl)piperidine-2,6-dione] yielded an IC50 of 0.11 ± 0.17 nM. Work on `O=C1CCC(N2Cc3c(SCc4ccc(CN5CCSCC5)cc4)cccc3C2=O)C(=O)N1` (stereo not shown) [SIAIS1224089, 3-(1-oxo-4-((4-(thiomorpholinomethyl)benzyl)thio)isoindolin-2-yl)piperidine-2,6-dione] yielded an IC50 of 0.144 nM. Molecule `O=C1CCC(N2Cc3c(SCc4ccc(CN5CCOCC5)cc4)cccc3C2=O)C(=O)N1` (stereo not shown) [SIAIS1220167, 3-(4-((4-(morpholinomethyl)benzyl)thio)-1-oxoisoindolin-2-yl)piperidine-2,6-dione] has an IC50 of 0.25 ± 0.01 nM. Molecule `CC12CC3CC(C)(C1)CC(NCCCCCCCSc1cccc4c1CN(C1CCC(=O)NC1=O)C4=O)(C3)C2` (stereo not shown) [SIAIS1220157, 3-(4-((7-((3,5-dimethyladamantan-1-yl)amino)heptyl)thio)-1-oxoisoindolin-2-yl)piperidine-2,6-dione] has an IC50 of 0.02 nM. `O=C1CCC(N2Cc3c(SCc4csc(CN5CCCCCC5)n4)cccc3C2=O)C(=O)N1` (stereo not shown) [SIAIS313165, 3-(4-(((2-(azepan-1-ylmethyl)thiazol-4-yl)methyl)thio)-1-oxoisoindolin-2-yl)piperidine-2,6-dione] gave an IC50 of 2.77 ± 1.12 nM. `CS(=O)(=O)N1CCN(CCCCCCCSc2cccc3c2CN(C2CCC(=O)NC2=O)C3=O)CC1` (stereo not shown) [SIAIS1224039, 3-(4-((7-(4-(methylsulfonyl)piperazin-1-yl)heptyl)thio)-1-oxoisoindolin-2-yl)piperidine-2,6-dione] showed an IC50 of 0.54 nM. With `O=C1CCC(N2Cc3c(SCCCCNC45CC6CC(CC(C6)C4)C5)cccc3C2=O)C(=O)N1` (stereo not shown) [SIAIS1222179, 3-(4-((4-((adamantan-1-yl)amino)butyl)thio)-1-oxoisoindolin-2-yl)piperidine-2,6-dione] the IC50 was 0.074 nM. `O=C1CCC(N2Cc3c(SCCCc4ccc(CNC56CC7CC(CC(C7)C5)C6)cc4)cccc3C2=O)C(=O)N1` (stereo not shown) [SIAIS1227037, 3-(4-((3-(4-(((adamantan-1-yl)amino)methyl)phenyl)propyl)thio)-1-oxoisoindolin-2-yl)piperidine-2,6-dione] was tested, and the IC50 was 0.04 ± 0.02 nM. `O=C1CCC(N2Cc3c(SCc4ccc(CN5CCCCC5)o4)cccc3C2=O)C(=O)N1` (stereo not shown) [SIAIS313123, 3-(1-oxo-4-(((5-(piperidin-1-ylmethyl)furan-2-yl)methyl)thio)isoindolin-2-yl)piperidine-2,6-dione] was tested, and the IC50 was 2.29 ± 0.95 nM. Molecule `O=C1CCC(N2Cc3c(SCc4ccc(CNCC5CCCCC5)cc4)cccc3C2=O)C(=O)N1` (stereo not shown) [SIAIS1222187, 3-(4-((4-(((cyclohexylmethyl)amino)methyl)benzyl)thio)-1-oxoisoindolin-2-yl)piperidine-2,6-dione] has an IC50 of 0.005 nM. With `CN(CCCCNC(=O)CSc1cccc2c1CN(C1CCC(=O)NC1=O)C2=O)C12CC3CC(CC(C3)C1)C2` (stereo not shown) [SIAIS287105, N-(4-(adamantan-1-yl(methyl)amino)butyl)-2-((2-(2,6-dioxopiperidin-3-yl)-1-oxoisoindolin-4-yl)thio)acetamide] the IC50 was 5.01 nM. `O=C1CCC(N2Cc3c(SCCCCCCCNCC45CC6CC(CC(C6)C4)C5)cccc3C2=O)C(=O)N1` (stereo not shown) [SIAIS1220171, 3-(4-((7-(((adamantan-1-yl)methyl)amino)heptyl)thio)-1-oxoisoindolin-2-yl)piperidine-2,6-dione] showed an IC50 of 0.044 ± 0.003 nM. `O=C1CCC(N2C(=O)c3cccc(SCc4ccc(CCCN5CCCCC5)cc4)c3C2=O)C(=O)N1` (stereo not shown) [SIAIS1227085, 2-(2,6-dioxopiperidin-3-yl)-4-((4-(3-(piperidin-1-yl)propyl)benzyl)thio)isoindoline-1,3-dione] was tested, and the IC50 was 0.37 nM. For `O=C1CCC(N2C(=O)c3cccc(SCCCCCCNCC45CC6CC(CC(C6)C4)C5)c3C2=O)C(=O)N1` (stereo not shown) [SIAIS1222071, 4-((6-(((adamantan-1-yl)methyl)amino)hexyl)thio)-2-(2,6-dioxopiperidin-3-yl)isoindoline-1,3-dione], the IC50 was 2.12 nM. `CC1(C)CCC(NCCCCCCCSc2cccc3c2CN(C2CCC(=O)NC2=O)C3=O)CC1` (stereo not shown) [SIAIS1221029, 3-(4-((7-((4,4-dimethylcyclohexyl)amino)heptyl)thio)-1-oxoisoindolin-2-yl)piperidine-2,6-dione] showed an IC50 of 0.025 nM. `O=C1CCC(N2Cc3c(SCCCCCCCCS)cccc3C2=O)C(=O)N1` (stereo not shown) [SIAIS1220143, 3-(4-((8-mercaptooctyl)thio)-1-oxoisoindolin-2-yl)piperidine-2,6-dione] gave an IC50 of 2.73 nM. `O=C1CCC(N2Cc3c(SCCCCCCCN4CCCC4)cccc3C2=O)C(=O)N1` (stereo not shown) [SIAIS1220161, 3-(1-oxo-4-((7-(pyrrolidin-1-yl)heptyl)thio)isoindolin-2-yl)piperidine-2,6-dione] showed an IC50 of 0.12 nM. For `O=C1CCC(N2Cc3c(SCc4ccc(CNC5CCCCC5)cc4)cccc3C2=O)C(=O)N1` (stereo not shown) [SIAIS1221071, 3-(4-((4-((cyclohexylamino)methyl)benzyl)thio)-1-oxoisoindolin-2-yl)piperidine-2,6-dione], the IC50 was 0.072 ± 0.004 nM. With `O=C1CCC(N2Cc3c(SCc4ccc(CCN5CCC(F)(F)CC5)cc4)cccc3C2=O)C(=O)N1` (stereo not shown) [SIAIS1227161, 3-(4-((4-(2-(4,4-difluoropiperidin-1-yl)ethyl)benzyl)thio)-1-oxoisoindolin-2-yl)piperidine-2,6-dione] the IC50 was 0.025 nM. For `CN(C)CCOCCOCCSc1cccc2c1CN(C1CCC(=O)NC1=O)C2=O` (stereo not shown) [SIAIS1216195, 3-(4-((2-(2-(2-(dimethylamino)ethoxy)ethoxy)ethyl)thio)-1-oxoisoindolin-2-yl)piperidine-2,6-dione], the IC50 was 4.96 ± 0.54 nM. `O=C1CCC(N2Cc3c(SCc4ccc(CNC(C5CC5)C5CC5)o4)cccc3C2=O)C(=O)N1` (stereo not shown) [SIAIS313150, 3-(4-(((5-(((dicyclopropylmethyl)amino)methyl)furan-2-yl)methyl)thio)-1-oxoisoindolin-2-yl)piperidine-2,6-dione] was tested, and the IC50 was 0.7 ± 0.27 nM. In the case of `CC1(C)[C@@H]2CC[C@@]1(C)[C@@H](NCCCCCCCSc1cccc3c1C(=O)N(C1CCC(=O)NC1=O)C3=O)C2` (stereo partly drawn) [SIAIS1221177, 2-(2,6-dioxopiperidin-3-yl)-4-((7-(((1R,2S,4R)-1,7,7-trimethylbicyclo[2.2.1]heptan-2-yl)amino)heptyl)thio)isoindoline-1,3-dione], the IC50 is reported as 0.258 nM. `CC(C)N(C(=O)CCCCCCSc1cccc2c1CN(C1CCC(=O)NC1=O)C2=O)C(C)C` (stereo not shown) [SIAIS1220117, 7-((2-(2,6-dioxopiperidin-3-yl)-1-oxoisoindolin-4-yl)thio)-N,N-diisopropylheptanamide] gave an IC50 of 0.07 nM. For `O=C1CCC(N2Cc3c(SCc4ccc(CNC56CC7CC(CC(C7)C5)C6)cc4)cccc3C2=O)C(=O)N1` (stereo not shown) [SIAIS1221003, 3-(4-((4-(((adamantan-1-yl)amino)methyl)benzyl)thio)-1-oxoisoindolin-2-yl)piperidine-2,6-dione], the IC50 was 0.024 ± 0.01 nM. `O=C1CCC(N2Cc3c(SCCCCCCCCN4CCCCC4)cccc3C2=O)C(=O)N1` (stereo not shown) [SIAIS1220009, 3-(1-oxo-4-((8-(piperidin-1-yl)octyl)thio)isoindolin-2-yl)piperidine-2,6-dione] was tested, and the IC50 was 0.12 ± 0.03 nM. With `O=C1CCC(N2Cc3c(SCCCCCCCCCCCN4CCOCC4)cccc3C2=O)C(=O)N1` (stereo not shown) [SIAIS1220045, 3-(4-((11-morpholinoundecyl)thio)-1-oxoisoindolin-2-yl)piperidine-2,6-dione] the IC50 was 0.36 ± 0.13 nM.

Same assay, conditions: Homo sapiens, MM1.S, 72 h, read-out: IC50 against MM.1S cells (proliferation inhibition)
In the case of `O=C1CCC(N2Cc3c(SCCCCCCCCN4CCCCC4)cccc3C2=O)C(=O)N1` (stereo not shown) [SIAIS1220009, 3-(1-oxo-4-((8-(piperidin-1-yl)octyl)thio)isoindolin-2-yl)piperidine-2,6-dione], the IC50 is reported as roughly 0.12 nM.
